These results are taken from US7595403B2, “Benzisothiazol-3-one-carboxylic acid amides as phospholipase inhibitors” (Eli Lilly and Company, priority 2003, dated 2009).

Data set [1] has as its target T1, Recombinant Hepatic Lipase (Homo sapiens, UniProt P11150).
T1 construct: made in house; host or cells: AV12 cells
T1 sequence (P11150 23-499): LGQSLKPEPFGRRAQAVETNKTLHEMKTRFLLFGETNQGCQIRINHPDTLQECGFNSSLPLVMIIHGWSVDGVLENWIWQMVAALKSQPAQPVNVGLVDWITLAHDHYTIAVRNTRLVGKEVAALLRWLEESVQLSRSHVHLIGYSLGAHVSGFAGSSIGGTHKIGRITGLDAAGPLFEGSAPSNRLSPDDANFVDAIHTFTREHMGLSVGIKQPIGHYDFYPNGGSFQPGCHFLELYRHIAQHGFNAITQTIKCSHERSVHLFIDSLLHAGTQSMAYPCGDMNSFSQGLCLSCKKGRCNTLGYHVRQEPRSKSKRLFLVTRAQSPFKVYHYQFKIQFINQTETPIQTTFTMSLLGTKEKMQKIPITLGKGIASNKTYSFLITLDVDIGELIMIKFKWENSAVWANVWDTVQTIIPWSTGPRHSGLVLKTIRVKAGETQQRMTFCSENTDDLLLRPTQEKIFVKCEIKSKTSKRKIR
The data set can be described thus: Hepatic Lipase Phospholipase Assay. Format: biochemical. The following applies: ThioPEG substrate, DTNB read at 412 nm, pH 8.3, 37° C., HL 12.5 nM. As to the method:
Hepatic Lipase Phospholipase Assay
Efficacy was determined by testing various compounds of the invention in a hepatic lipase and/or endothelial lipase assay discussed below, and disclosed in U.S. patent application Ser. No. 09/609, 871 filed Jul. 3, 2000 incorporated herein in its entirety for U.S Patent Office purposes.
• Substrate Buffer A: 100 mM Hepes, pH 8.3 at 37° C. • Substrate Buffer B: 100 mM Hepes, pH 8.3 at 37° C. with 6.83 mM Triton X100 • ThioPEG: Molecular wt. of 540 • Recombinant Hepatic Lipase • Thiophospholipid: about 0.42 mM thiophospholipid in chloroform • DTNB Solution: about […] DTNB in DMSO (dimethyl sulfoxide) Hepes Buffer A
For Hepes Buffer A, there is 2.4 g Hepes/100 mL water. Therefore 36 grams of Hepes is dissolved in 1500 mL of water. The mix solution's pH is adjusted to pH83 at 37° C. and brought up to 1500 mL with water. 500 mL of Buffer A is retained for the Protein Buffer.
To the remaining 1000 mL of Hepes Buffer A, 4.49 g of Triton X-100 is added and then the combination mixed on a stir plate. It is optimal that stock Buffer A not be too cold or Triton X-100 will take a long time to go into solution
For 0.42 mM substrate stock, use 0.227 mg of thioPEG/mL of Substrate Buffer B. Approximately 20 mg of sn-1 thiol substituted Phosphatidyl Ethylene Glycol (see Examples for preparation method) is weighed into a vial, such as a scintillation vial. Enough chloroform should be added to make a 2.043 mg/mL solution. Sonicate the solution briefly until well dissolved. Next, pipette 1 mL of chloroform/substrate solution into each scintillation vial. This should give enough substrate for one full 96 well plate. Each vial is dried with nitrogen until solvent removed, swirling each vial simultaneously such that a thin film of substrate will be easily reconstituted in each buffer. Each vial is then frozen.
Daily stock preparation is-performed for 9 mL of substrate (one microtiter plate). On the day of the assay, the substrate vial is removed from the freezer and combined with 9 mL of pre-warmed (37° C.) substrate buffer (the final concentration is 0.227 mg/mL). Place the buffer in a 37° C. water bath. Sonicate for 5 minutes or vortex until solution is clear before use.
The enzyme is stored at −80° C. in 100 or 50 μL portions. A 0.406 mg/mL recombinant hepatic lipase and/or endothelial lipase stock requires a 50-fold dilution. Therefore, to a 50 μl or 100 μl enzyme aliquot, 2450 μl or 4900 μl, respectively, of substrate Buffer A (protein buffer) should be added. The enzyme should then be stored on ice until ready to use. The protein concentration of enzyme is about 0.406 mg/mL.
To make a 20 mg/mL stock solution, 2-3 mg of DTNB is weighed and then mixed with an appropriate amount of 100% DMSO (dimethyl sulfoxide) to make the desired concentration. This mixture is sonicated for five minutes.
The above solution should be diluted 10 fold with substrate Buffer B (concentration now 2 mg/mL). Then to the thioPEG substrate solution, add 60 μl of dilute DTNB per mL of thioPEG substrate solution. Thus for 9 mL of substrate, 540 microliters of dilute DTNB (final concentration in substrate solution=0.11 mg/mL).
The test compound is dissolved in pure DMSO at […]. As shown below in Table 2, assay concentrations are 10, 1, 0.1, 0.33, 0.011, 0.0037, 0.0012 and 0.00041 μM.
Using a spectrometer, DTNB is used as a thiol coloring reagent with an incubator temperature of 37° C. Substrate Buffer B is placed in a 37° C. water bath to pre-warm. The substrate is removed from the freezer and 9 mL of substrate Buffer B, 100 mM Hepes, 6.83 mM Tx-100) is added, sonicated for 5 min. and then kept in a 37° C. water bath. Dilutions of the test compound are next made in preparation for assay.
10 μl of the diluted test compound are transferred via pipette into the wells. Control wells receive 10 μl each of 10% DMSO and enzyme solution, while blank wells receive 10 microliters of 10% DMSO and 10 microliters of saline (no enzyme). […]

Regarding `CCCCCCNC(=O)n1sc2ccccc2c1=O`, the IC50 (commonly the concentration needed to halve the response being measured) in data set [1] came out at 0.724 ± 0.016 µM.

For `CC(C)CCCCNC(=O)n1sc2ccccc2c1=O`, the IC50 in data set [1] was 0.622 ± 0.019 µM.

For `CCCCCCCNC(=O)n1sc2ccccc2c1=O`, the IC50 in data set [1] stood at 0.757 ± 0.018 µM.

For `CCCCCCCCNC(=O)n1sc2ccccc2c1=O`, the IC50 in data set [1] came out at 0.649 ± 0.017 µM.

Take `CCCCCCCCCCCCNC(=O)n1sc2ccccc2c1=O`: the IC50 in data set [1] was 0.933 ± 0.034 µM.

Turning to `Cc1ccccc1CNC(=O)n1sc2ccccc2c1=O`, the IC50 in data set [1] was found to be 0.183 ± 0.006 µM.

For the compound `Cc1cccc(CNC(=O)n2sc3ccccc3c2=O)c1`, in data set [1], the concentration for half-maximal inhibition (IC50) is 0.409 ± 0.014 µM.

For `Cc1ccc(CNC(=O)n2sc3ccccc3c2=O)cc1`, the IC50 in data set [1] turned out to be 0.671 ± 0.018 µM.

As for `CC(C)NC(=O)n1sc2cc(Cl)ccc2c1=O`, in data set [1], the IC50 worked out at 0.626 ± 0.02 µM.

Consider `CCCCCNC(=O)n1sc2cc(Cl)ccc2c1=O`, for which the IC50 in data set [1] stood at 0.532 ± 0.01 µM.

Take `CCCCCCNC(=O)n1sc2cc(Cl)ccc2c1=O`: in data set [1], the 50% inhibitory concentration (IC50) turned out to be 0.333 ± 0.008 µM.

Turning to `O=C(NC1CCCCC1)n1sc2cc(Cl)ccc2c1=O`, the IC50 in data set [1] is 0.419 ± 0.007 µM.

With `O=C(NCc1ccccc1)n1sc2cc(Cl)ccc2c1=O`, the IC50 in data set [1] was determined as 0.893 ± 0.048 µM.

`CCNC(=O)n1sc2ccccc2c1=O` [Example 1, 3-Oxo-3H-benzo[d]isothiazole-2-carboxylic acid ethylamide]: the melting point (commonly the temperature, or range, at which the solid turns liquid) lay in the range of 123 to 124 °C.

`CCCNC(=O)n1sc2ccccc2c1=O` [Example 2, 3-Oxo-3H-benzo[d]isothiazole-2-carboxylic acid propylamide]: the melting point lay in the range of 90 to 91 °C.

The compound `C=CCNC(=O)n1sc2ccccc2c1=O` [Example 3, 3-Oxo-3H-benzo[d]isothiazole-2-carboxylic acid allylamide] yielded a melting point of 116 to 119 °C.

As for `CCCCCNC(=O)n1sc2ccccc2c1=O` [Example 4, 3-Oxo-3H-benzo[d]isothiazole-2-carboxylic acid pentylamide], the melting point was 42 to 44 °C.

As to `CCc1cccc(C)c1CNC(=O)n1sc2ccccc2c1=O` [Example 13, 3-Oxo-3H-benzo[d]isothiazole-2-carboxylic acid 2-ethyl-6-methyl-benzylamide], the melting point fell in the range of 102 to 104 °C.

In the case of `Cc1cccc(C(C)C)c1CNC(=O)n1sc2ccccc2c1=O` [Example 14, 3-Oxo-3H-benzo[d]isothiazole-2-carboxylic acid 2-isopropyl-6-methyl-benzylamide], the melting point lay in the range of 102 to 103 °C.

`O=C(NCCc1ccccc1)n1sc2ccccc2c1=O` [Example 15, 3-Oxo-3H-benzo[d]isothiazole-2-carboxylic acid phenethylamide] had a melting point of 153 to 155 °C.

For the compound `O=C(NCCCc1ccccc1)n1sc2ccccc2c1=O` [Example 17, 3-Oxo-3H-benzo[d]isothiazole-2-carboxylic acid (3-phenyl-propyl)-amide], the melting point fell in the range of 109 to 111 °C.

`O=C(NCCCCc1ccccc1)n1sc2ccccc2c1=O` [Example 18, 3-Oxo-3H-benzo[d]isothiazole-2-carboxylic acid (4-phenyl-butyl)-amide] showed a melting point of 119 to 120 °C.

In turn, `O=C(NCCCCC1CCCCC1)n1sc2ccccc2c1=O` [Example 19, 3-Oxo-3H-benzo[d]isothiazole-2-carboxylic acid (4-cyclohexyl-butyl)-amide] showed a melting point of 76 to 78 °C.

Consider `CCCCCNC(=O)n1sc2ccccc2c1=O` [drawing 9], for which, in data set [1], the IC50 was 0.879 ± 0.024 µM.

On to `CCc1cccc(C)c1CNC(=O)n1sc2ccccc2c1=O` [drawing 18], for which the IC50 in data set [1] came to 0.237 ± 0.004 µM.

Consider `Cc1cccc(C(C)C)c1CNC(=O)n1sc2ccccc2c1=O` [drawing 19], for which the half-maximal inhibitory concentration (IC50) in data set [1] was 0.238 ± 0.013 µM.

In the case of `O=C(NCCCc1ccccc1)n1sc2ccccc2c1=O` [drawing 20], the IC50 in data set [1] amounted to 0.43 ± 0.019 µM.

For the compound `O=C(NCCCCc1ccccc1)n1sc2ccccc2c1=O` [drawing 21], the 50% inhibitory concentration (IC50) in data set [1] worked out at 0.458 ± 0.016 µM.

With `O=C(NCCCCC1CCCCC1)n1sc2ccccc2c1=O` [drawing 22], the IC50 in data set [1] was found to be 0.482 ± 0.021 µM.
